Assay results: paper PMC12430708, “Design, Synthesis, and In Vitro and In Silico Study of New Hybrid 1-(2-(4-Arylthiazol-2-yl)hydrazineylidene)-5,6-dihydro-4H-pyrrolo[3,2,1-ij]quinolin-2-ones as Factor Xa and Factor XIa Inhibitors” (Molecules, 2025)

How the values were obtained:
Assay type in all cases: biochemical
factor XIa = factor XIa (Homo sapiens, UniProt P03951); assay: Inhibition of factor XIa, hydrolysis kinetics of chromogenic substrate S2366; conditions: for inhibition at 30 µM / Percent Inhibition at 30 μM ± SEM (n = 3), XIa: 30 μM compound, factor XIa 5 nmol/L, S2366 200 µmol/L, negative values denote percent activation; for inhibition at 30 µM: read-out: Percent Inhibition at 30 μM ± SEM (n = 3), XIa; for IC50: substrate S2366, buffer solution, read-out: IC50, μM ± SEM (n = 3), XIa
From the text: (§1) The inhibition of the blood coagulation factors Xa and XIa or plasmin by the synthesized compounds 5a–o was studied by measuring the kinetics of hydrolysis of substrates specific for each of these enzymes in the presence of the compounds. A specific low-molecular-weight chromogenic substrate S2765 (Z-D-Arg-Gly-Arg-pNA·2HCl) was used in the case of factor Xa, substrate S2366 (pyroGlu-Pro-Arg-pNA·HCl) was used for factor XIa, and S2288 (H-D-Ile-Pro-Arg-pNA·2HCl) was used for plasmin (all from Chromogenix, West Chester, PA, USA). A buffer containing 140 mM NaCl, 20 mM HEPES, and 0.1% PEG 6000 (pH 8.0) was placed in the wells of a 96-well plate, followed by the addition of factor Xa or XIa (final concentration 5 nmol·L^−1) or plasmin (final concentration 10 nmol L^−1); the substrate S2765, S2366, or S2288 (final concentration 200 µmol·L^−1); and a solution of the test compound in DMSO (final concentration 30 µmol·L^−1, the DMSO content in the well was no more than 2%). The kinetics of the formation of p-nitroaniline was measured using an Eppendorf PlateReader AF2200 microplate reader (Eppendorf, Hamburg, Germany) by the absorption of light with a wavelength of 405 nm. The initial rate of substrate degradation was determined from the initial slope of the 4-nitroaniline formation curve.
(§2) The absolute value of negative inhibition values denotes percent activation.
(§3) The data obtained were processed using the GraphPad Prism 8.0.1 (244) and OriginPro 8 software.

factor Xa = factor Xa (Homo sapiens, UniProt P00742); assay: Inhibition of factor Xa, hydrolysis kinetics of chromogenic substrate S2765; conditions: for inhibition at 30 µM / Percent Inhibition at 30 μM ± SEM (n = 3), Xa: 30 μM compound, factor Xa 5 nmol/L, S2765 200 µmol/L, negative values denote percent activation; for inhibition at 30 µM: read-out: Percent Inhibition at 30 μM ± SEM (n = 3), Xa; for IC50: substrate S2765, buffer solution, read-out: IC50, μM ± SEM (n = 3), Xa
From the text: as §1, §2, §3

plasmin = plasmin (Homo sapiens, UniProt P00747); assay: Inhibition of plasmin, hydrolysis kinetics of chromogenic substrate S2288 (selectivity); conditions: 30 μM compound, plasmin 10 nmol/L, S2288 200 µmol/L; for inhibition at 30 µM: read-out: Percent Inhibition at 30 μM ± SEM (n = 3), Plasmin
From the text: as §1, §2, §3

Chain of plasmin (P00747 581-810 limits assumed, species assumed): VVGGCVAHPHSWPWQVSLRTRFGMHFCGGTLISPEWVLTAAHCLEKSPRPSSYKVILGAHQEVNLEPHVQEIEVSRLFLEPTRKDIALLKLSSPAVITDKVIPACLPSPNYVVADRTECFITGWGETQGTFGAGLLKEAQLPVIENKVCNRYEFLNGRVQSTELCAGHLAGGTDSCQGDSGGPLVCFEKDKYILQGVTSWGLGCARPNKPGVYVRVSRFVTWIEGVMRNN
Chain of plasmin (P00747 97-580 partner limits assumed, species assumed): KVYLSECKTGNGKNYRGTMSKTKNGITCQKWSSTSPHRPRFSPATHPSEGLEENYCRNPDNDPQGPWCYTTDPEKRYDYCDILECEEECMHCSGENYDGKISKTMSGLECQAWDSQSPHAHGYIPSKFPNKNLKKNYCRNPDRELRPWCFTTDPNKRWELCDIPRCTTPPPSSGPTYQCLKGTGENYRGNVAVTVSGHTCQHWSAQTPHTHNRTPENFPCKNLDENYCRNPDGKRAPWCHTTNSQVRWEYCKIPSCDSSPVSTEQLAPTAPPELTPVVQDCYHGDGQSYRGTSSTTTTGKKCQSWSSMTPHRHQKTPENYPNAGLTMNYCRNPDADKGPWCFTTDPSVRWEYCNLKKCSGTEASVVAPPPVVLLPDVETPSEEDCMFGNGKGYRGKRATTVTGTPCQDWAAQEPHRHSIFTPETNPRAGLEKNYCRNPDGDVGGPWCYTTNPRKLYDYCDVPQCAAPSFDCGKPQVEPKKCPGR
Chain of factor XIa (P03951 388-625 limits assumed): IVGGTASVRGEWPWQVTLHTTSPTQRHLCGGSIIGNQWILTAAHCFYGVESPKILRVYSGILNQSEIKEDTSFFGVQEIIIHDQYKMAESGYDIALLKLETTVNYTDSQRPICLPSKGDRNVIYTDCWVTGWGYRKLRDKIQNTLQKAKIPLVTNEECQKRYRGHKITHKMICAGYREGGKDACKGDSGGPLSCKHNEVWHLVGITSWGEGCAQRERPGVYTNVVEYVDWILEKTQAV
Chain of factor XIa (P03951 19-387 partner limits assumed): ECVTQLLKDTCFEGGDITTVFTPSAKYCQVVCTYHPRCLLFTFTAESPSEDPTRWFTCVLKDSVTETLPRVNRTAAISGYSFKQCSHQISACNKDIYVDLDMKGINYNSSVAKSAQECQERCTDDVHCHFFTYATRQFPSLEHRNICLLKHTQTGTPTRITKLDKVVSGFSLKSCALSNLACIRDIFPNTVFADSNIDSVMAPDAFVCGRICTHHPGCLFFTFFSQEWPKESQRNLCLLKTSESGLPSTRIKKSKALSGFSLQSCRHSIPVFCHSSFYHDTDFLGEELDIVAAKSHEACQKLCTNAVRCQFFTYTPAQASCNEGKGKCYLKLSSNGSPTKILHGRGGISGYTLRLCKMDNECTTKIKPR
Chain of factor Xa (P00742 235-488 limits assumed): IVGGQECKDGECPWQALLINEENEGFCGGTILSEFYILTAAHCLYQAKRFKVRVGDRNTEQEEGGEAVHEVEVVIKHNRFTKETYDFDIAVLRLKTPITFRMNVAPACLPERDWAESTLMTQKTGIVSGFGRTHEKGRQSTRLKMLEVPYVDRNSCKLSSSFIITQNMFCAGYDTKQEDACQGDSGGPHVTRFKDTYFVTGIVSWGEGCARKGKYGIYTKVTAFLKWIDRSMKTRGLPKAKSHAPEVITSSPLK
Chain of factor Xa (P00742 41-179 partner limits assumed): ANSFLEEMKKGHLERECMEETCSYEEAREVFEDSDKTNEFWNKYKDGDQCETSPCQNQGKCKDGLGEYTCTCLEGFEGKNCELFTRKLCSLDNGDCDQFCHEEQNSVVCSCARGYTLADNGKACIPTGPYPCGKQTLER

| SMILES | inhibition at 30 µM (factor XIa) [%] | inhibition at 30 µM (factor Xa) [%] | Percent Inhibition at 30 μM ± SEM (n = 3), Plasmin (plasmin) [%] | inhibition at 30 µM (plasmin) [%] | Percent Inhibition at 30 μM ± SEM (n = 3), XIa (factor XIa) [%] | IC50 (factor XIa) [µM] | Percent Inhibition at 30 μM ± SEM (n = 3), Xa (factor Xa) [%] | IC50 (factor Xa) [µM] |
| --- | --- | --- | --- | --- | --- | --- | --- | --- |
| COc1cc2c3c(c1)C(C)CC(C)(C)N3C(=O)/C2=N\Nc1nc(-c2ccc(Cl)cc2)cs1 (stereo not drawn) [5a, (Z)-1-(2-(4-(4-Chlorophenyl)thiazol-2-yl)hydrazineylidene)-8-methoxy-4,4,6-trimethyl-5,6-dihydro-4H-pyrrolo[3,2,1-ij]quinolin-2(1H)-one] | -13 ± 11 | -30 ± 7 | – | – | – | – | – | – |
| COc1cc2c3c(c1)C(C)CC(C)(C)N3C(=O)/C2=N\Nc1nc(-c2ccc(F)cc2)cs1 (stereo not drawn) [5b, (Z)-1-(2-(4-(4-Fluorophenyl)thiazol-2-yl)hydrazineylidene)-8-methoxy-4,4,6-trimethyl-5,6-dihydro-4H-pyrrolo[3,2,1-ij]quinolin-2(1H)-one] | -6 ± 10 | -30 ± 10 | – | – | – | – | – | – |
| COc1cc2c3c(c1)C(C)CC(C)(C)N3C(=O)/C2=N\Nc1nc(-c2ccc(Br)cc2)cs1 (stereo not drawn) [5c, (Z)-1-(2-(4-(4-Bromophenyl)thiazol-2-yl)hydrazineylidene)-8-methoxy-4,4,6-trimethyl-5,6-dihydro-4H-pyrrolo[3,2,1-ij]quinolin-2(1H)-one] | -7 ± 8 | -40 ± 10 | – | – | – | – | – | – |
| CC1CC(C)(C)N2C(=O)/C(=N\Nc3nc(-c4ccc(F)cc4)cs3)c3cc(Cl)cc1c32 (stereo not drawn) [5d, (Z)-8-Chloro-1-(2-(4-(4-fluorophenyl)thiazol-2-yl)hydrazineylidene)-4,4,6-trimethyl-5,6-dihydro-4H-pyrrolo[3,2,1-ij]quinolin-2(1H)-one] | 98 to 100 | 98 to 100 | 5 ± 1 | < 10 | 99 | 7.7 ± 0.05 | 98 ± 1 | 5.43 ± 0.02 |
| COc1ccc(-c2csc(N/N=C3\C(=O)N4c5c3cc(Cl)cc5C(C)CC4(C)C)n2)cc1 (stereo not drawn) [5e, (Z)-8-Chloro-1-(2-(4-(4-methoxyphenyl)thiazol-2-yl)hydrazineylidene)-4,4,6-trimethyl-5,6-dihydro-4H-pyrrolo[3,2,1-ij]quinolin-2(1H)-one] | -2 ± 11 | -8 ± 10 | – | – | – | – | – | – |
| COc1cccc(-c2csc(N/N=C3\C(=O)N4c5c3cc(F)cc5C(C)CC4(C)C)n2)c1 (stereo not drawn) [5f, (Z)-8-Fluoro-1-(2-(4-(3-methoxyphenyl)thiazol-2-yl)hydrazineylidene)-4,4,6-trimethyl-5,6-dihydro-4H-pyrrolo[3,2,1-ij]quinolin-2(1H)-one] | -11 ± 9 | -25 ± 9 | – | – | – | – | – | – |
| CC1(c2ccccc2)CC(C)(C)N2C(=O)/C(=N\Nc3nc(-c4ccc(Cl)cc4)cs3)c3cc(F)cc1c32 (stereo not drawn) [5g, (Z)-1-(2-(4-(4-Chlorophenyl)thiazol-2-yl)hydrazineylidene)-8-fluoro-4,4,6-trimethyl-6-phenyl-5,6-dihydro-4H-pyrrolo[3,2,1-ij]quinolin-2(1H)-one] | 76 ± 3 | 51 ± 18 | – | – | – | – | – | – |
| CC1(c2ccccc2)CC(C)(C)N2C(=O)/C(=N\Nc3nc(-c4ccc(Cl)cc4)cs3)c3cc(Br)cc1c32 (stereo not drawn) [5h, (Z)-8-Bromo-1-(2-(4-(4-chlorophenyl)thiazol-2-yl)hydrazineylidene)-4,4,6-trimethyl-6-phenyl-5,6-dihydro-4H-pyrrolo[3,2,1-ij]quinolin-2(1H)-one] | 98 to 100 | 98 to 100 | 8 ± 2 | < 10 | 100 | 7.66 ± 0.08 | 99 ± 1 | 5.75 ± 0.02 |
| COc1ccc(-c2csc(N/N=C3\C(=O)N4c5c3cccc5C(C)(c3ccc(Cl)cc3)CC4(C)C)n2)cc1 (stereo not drawn) [5i, (Z)-6-(4-Chlorophenyl)-1-(2-(4-(4-methoxyphenyl)thiazol-2-yl)hydrazineylidene)-4,4,6-trimethyl-5,6-dihydro-4H-pyrrolo[3,2,1-ij]quinolin-2(1H)-one] | -14 ± 10 | -21 ± 9 | – | – | – | – | – | – |
| COc1ccc(-c2csc(N/N=C3\C(=O)N4c5c3cc(Cl)cc5C(C)(c3ccc(Cl)cc3)CC4(C)C)n2)cc1 (stereo not drawn) [5j, (Z)-8-Chloro-6-(4-chlorophenyl)-1-(2-(4-(4-methoxyphenyl)thiazol-2-yl)hydrazineylidene)-4,4,6-trimethyl-5,6-dihydro-4H-pyrrolo[3,2,1-ij]quinolin-2(1H)-one] | -3 ± 6 | -3 ± 3 | – | – | – | – | – | – |
| CC1(c2ccc(Cl)cc2)CC(C)(C)N2C(=O)/C(=N\Nc3nc(-c4ccc(Cl)cc4)cs3)c3cc(F)cc1c32 (stereo not drawn) [5k, (Z)-6-(4-Chlorophenyl)-1-(2-(4-(4-chlorophenyl)thiazol-2-yl)hydrazineylidene)-8-fluoro-4,4,6-trimethyl-5,6-dihydro-4H-pyrrolo[3,2,1-ij]quinolin-2(1H)-one] | 37 ± 8 | -12 ± 11 | – | – | – | – | – | – |
| CC1(c2ccc(Cl)cc2)CC(C)(C)N2C(=O)/C(=N\Nc3nc(-c4ccc(F)cc4)cs3)c3cc(F)cc1c32 (stereo not drawn) [5l, (Z)-6-(4-Chlorophenyl)-8-fluoro-1-(2-(4-(4-fluorophenyl)thiazol-2-yl)hydrazineylidene)-4,4,6-trimethyl-5,6-dihydro-4H-pyrrolo[3,2,1-ij]quinolin-2(1H)-one] | -11 ± 7 | -4 ± 3 | – | – | – | – | – | – |
| CC1(c2ccc(Cl)cc2)CC(C)(C)N2C(=O)/C(=N\Nc3nc(-c4cccc(Cl)c4)cs3)c3cc(F)cc1c32 (stereo not drawn) [5m, (Z)-6-(4-Chlorophenyl)-1-(2-(4-(3-chlorophenyl)thiazol-2-yl)hydrazineylidene)-8-fluoro-4,4,6-trimethyl-5,6-dihydro-4H-pyrrolo[3,2,1-ij]quinolin-2(1H)-one] | -14 ± 7 | -17 ± 11 | – | – | – | – | – | – |
| COc1cccc(-c2csc(N/N=C3\C(=O)N4c5c3cc(F)cc5C(C)(c3ccc(Cl)cc3)CC4(C)C)n2)c1 (stereo not drawn) [5n, (Z)-6-(4-Chlorophenyl)-8-fluoro-1-(2-(4-(3-methoxyphenyl)thiazol-2-yl)hydrazineylidene)-4,4,6-trimethyl-5,6-dihydro-4H-pyrrolo[3,2,1-ij]quinolin-2(1H)-one] | -19 ± 8 | -2 ± 3 | – | – | – | – | – | – |
| CC1(c2ccc(Cl)cc2)CC(C)(C)N2C(=O)/C(=N\Nc3nc(-c4ccccc4)cs3)c3cc(Br)cc1c32 (stereo not drawn) [5o, (Z)-8-Bromo-6-(4-chlorophenyl)-4,4,6-trimethyl-1-(2-(4-phenylthiazol-2-yl)hydrazineylidene)-5,6-dihydro-4H-pyrrolo[3,2,1-ij]quinolin-2(1H)-one] | -11 ± 12 | -4 ± 6 | – | – | – | – | – | – |
